Assays:
[1] = test system: murine Panc-02 pancreatic cancer cells; assay: Injection of BSA-conjugated sphingolipids into mice with subcutaneous Panc-02 tumors; format: in vivo
From the text: (A) Splenic IMCs (Gr-1+CD11b+, also defined as MDSC: myeloid-derived suppressor cells) were isolated from subcutaneous human MDA-MB-231 breast tumor-bearing athymic nude mice, treated with or without dhS1P (to induce the expansion of CD19+CD45R B220+ cells: B-cells), and adoptively transferred into subcutaneous human MDA-MB-231 breast tumor-bearing athymic nude mice before monitoring tumor growth. ANOVA, **p<0.05 compared to PBS control, n≧6. (B) Splenic IMCs were isolated from orthotopic human BxPC-3 pancreatic tumor-bearing athymic nude mice, treated with or without dhS1P, and adoptively transferred into orthotopic human BxPC-3 pancreatic tumor-bearing athymic nude mice before monitoring survival. Logrank test, *p<0.05, n=5. (C) Tumor growth following BSA (lipid carrier control), sphingosine-1-phosphate (S1P), or dhS1P injection every other day, was monitored in C57BL/6J mice engrafted with subcutaneous murine Panc-02 pancreatic cancer cells. ANOVA, **p<0.05 compared to BSA control, n≧6.
Orthotopic pancreatic cancer and subcutaneous breast cancer tumors were established in athymic nude, NOD.CB17-Prkdcscid/J, BALB/cJ, or C57BL/6J mice as previously described (8, 9), with minor modifications. All cell lines used in animal and cellular studies, prior to any modification, were originally obtained from the American Type Culture Collection (Manassas, Va.). For orthotopic BxPC-3-GFP human pancreatic cancer xenografts, 4-6 week old female athymic mice were fully anesthetized with a mixture of ketamine-HCl (129 mg/kg) and xylazine (4 mg/kg) injected intramuscularly. A small incision was made in the left flank, the peritoneum was dissected and the pancreas exposed. Using a 27-gauge needle, 2.5×10^6 cells, prepared in 0.1 mL of Hank's balanced salt solution, were injected into the pancreas. For experimental lung-metastatic osteosarcoma xenografts, 4-6 week old female athymic nude mice were tail vein-injected with 2.5×10^6 human SAOS-2-LM7 cells. […] Tumor size was measured by caliper measurement. […]

[2] = test system: Gr-1+CD11b+ MDSC-like cells from MaFIA mice; assay: Lineage tracing: MDSC-like cells from tumor-bearing MaFIA mice exposed to dhS1P, flow cytometry; format: cell-based, MaFIA mice (C57BL/6J background); set-up: dose or concentration left out as unconfirmed
From the text: Gr-1+CD1 b+MDSC-like cells were isolated by high-speed cell sorting (85-95% purity) from the splenocytes of tumor-bearing MaFIA (Macrophage Fas-Induced Apoptosis) mice. These mice are on the C57BL/6J background and contain a transgene expressing both an inducible apoptosis feature as well as EGFP (enhanced green fluorescent protein). This transgene is expressed from the Csfr1 promoter (CD115), which restricts expression of the transgene to the myeloid lineage. Isolated MDSC-like cells were exposed to dhS1P ([…]) for 24 hours, and flow cytometry was performed to confirm both the disappearance of MDSC-like cells (Gr-1+CD11b+), and the appearance of a lymphocyte population (CD19+CD45R B220+). Lineage tracing using the EGFP feature of the transgene verified that dhS1P-induced lymphocytes (blue population) are EGFP negative and therefore not of myeloid-origin. This is in direct contrast with the EGFP positive MDSC-like cells (red population).

## CCCCCCCCCCCCCCC[C@@H](O)[C@@H](N)COP(=O)(O)O [dhS1P, dihydrosphingosine-1-phosphate]
[1]; direct injections into pancreatic tumor-bearing mice
  Life expectancy: improved
[1]; subcutaneous Panc-02 in C57BL/6J mice, injection every other day, 0.1 mL of 100 μM, BSA carrier
  Tumor growth: therapeutic effect
[2]
  Lymphocyte population (CD19+CD45R B220+): appearance
  MDSC-like cells (Gr-1+CD11b+): disappearance
